Each structure is given as a SMILES string.

The assay has as its target T1, Beta-amyloid (Aβ) peptide Aβ1–40 (Homo sapiens, UniProt P05067).
T1 construct: gene APP; Aβ1–40 (Aβ1–42 and Aβ25–35 also measured)
As to the kind of experiment: Thioflavin T fibril formation assay on the isolated peptide, […] hr at […] °C; electron microscopy (Aβ[…] and Aβ[…]). Type of assay: biochemical.

T1 sequence (P05067 672-711 limits assumed): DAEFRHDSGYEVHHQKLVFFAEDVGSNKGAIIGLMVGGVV

`CCN1C=CC(=CC=C(C=Cc2cc[n+](CC)c3ccccc23)c2cc[n+](CC)c3ccccc23)c2ccccc21` [NK-4, 4,4′-[3-{2-(1-ethyl-4(1H)-quinolylidene)ethylidene}propenylene] bis(1-ethylquinolinium iodide)]: the IC50 was about 10 µM.

A word on the IC50: it is the midpoint of a concentration-inhibition curve. Higher therefore signals lower potency.
